Experimental findings from patent US20070167408A1, “NOVEL ALKYL PHOSPHOLIPID DERIVATIVES WITH REDUCED CYTOTOXICITY AND USES THEREOF” (ZENTARIS GmbH, priority 2005, published 2007) are described below.

Each structure is given as a SMILES string. Where two headings read alike, the source gives them in different places.

Test [1] has as its system RKOp21 (human colon adenocarcinoma) cells. Briefly: XTT cytotoxicity assay, RKOp21 cells. Type of test: cell-based. Particulars: for RKOp21 % INH [31.6 μM] / inhibition at 31.6 µM: second set of experiments; for IC50: read-out: RKOp21 [IC50 (μM)]; for inhibition at 31.6 µM: read-out: RKOp21 % INH [31.6 μM]. The procedure:
(§1) Cytotoxicity of selected compounds of the invention against different mammalian cell lines was assessed as follows.
(§2) Human tumor cell lines KB/HeLa (ATCC CCL17, human cervix carcinoma), PC3 (ATCC CRL1435, human prostate carcinoma) and RKOp21 (human colon adenocarcinoma; Schmidt et al., Oncogene 2000, 19: 2423-2429) cells were used in an automated XTT screening assay for the assessment of cytotoxicity.
(§3) The XTT assay quantifies cellular metabolic activity which correlates with cell viability and cell number. Test compounds (selected compounds of the invention and known substances as controls) are dissolved in culture medium at 600 μM and added to the tumor cells in 10 different concentrations in a semi-logarithmic fashion starting from 100 μM as highest concentration.
(§4) In a second set of experiments employing PC3, RKOp21 and SKOV-3 (ATCC HTB-77, human ovary adenocarcinoma) cells, test and reference compounds were dissolved in 70% Ethanol/30% H2O in a stock concentration of 10 mM and diluted in cell culture medium to yield either 31.6 μM (PC3 and RKOp21) or 100 μM (SKOV-3) final concentration.
(§5) 48 h later cellular metabolic activity of cells treated with test compounds is quantified by measurement of the absorbance at 490 nm (conversion of XTT dye) in comparison to untreated control cells (100% viability).
(§6) KB/HeLa and PC3 cells were cultivated in RPMI 1640 medium (Gibco, Cat. No. 42401-018) supplemented with 10% heat inactivated fetal calf serum (FCS, Biochrom AG, Cat. No. S0115), 2 mM L-glutamine (Gibco, Cat. No. 25030-24) and 2% Penicillin-Streptomycin (PenStrep, Gibco, Cat. No. 15140-122). RKOp21 cells were grown in DMEM+GlutaMAXTM-I medium (Gibco, Cat. No. 61965-026) supplemented with 10% heat inactivated fetal calf serum (FCS, Biochrom AG, Cat. No. S0115), 2 mM L-glutamine (Gibco, Cat. No. 25030-24), 2% Penicillin-Streptomycin (PenStrep, Gibco, Cat. No. 15140-122) and 1% 1M HEPES (Gibco, Cat. No. 15630-056). All cells were cultured at 37° C. in 5% CO2 humidified air.
(§7) On the first day of the experiment cells were harvested from exponential phase cultures by trypsination, counted and plated into 96 well flat-bottom micro titer plates depending on the cell line as listed below:
(§8) After a 24 h recovery to allow the cells to resume exponential growth, the test compounds were diluted immediately prior to use and transferred in 25 μl volume to the wells.
(§9) Following 2 days of continuous drug exposure 50 μl of freshly prepared XTT-PMS solution {2% 0.386 mg/ml PMS (N-Methyl Dibenzopyrazine Methylsulphate; Sigma, Cat. No. P9625) in PBS+98% 1 mg/ml XTT (Sodium 2,3-bis(2-methoxy-4-nitro-5-sulfophenyl)-5-[(phenylamino)carbonyl]-2H-Tetrazolium; Serva, Cat. No. 38450) in RPMI 1640 medium without phenol red} was added to the wells. To measure the proportion of living cells, the cells were incubated for 3 h with XTT-PMS reagent at 37° C., 5% CO2, humidified atmosphere allowing to form the formazan salt. The amount of soluble formazan salt produced by cellular reduction of XTT is quantified by measuring the absorbance at 490 nm using the Biomek® 2000 ELISA plate reader. %-inhibition (cytotoxicity) of each test compound was calculated in relation to untreated control cells. Inhibition curves were generated and IC50 values calculated by using GraphPad Prism.
In general terms: Tetrazolium dyes change colour on reduction, which living cells bring about.

For test [2], the system named is PC3 (human prostate carcinoma) cells. Briefly: XTT cytotoxicity assay, PC3 cells. Type of test: cell-based. Particulars: for PC3 % INH [31.6 μM] / inhibition at 31.6 µM: second set of experiments; for IC50: read-out: PC3 [IC50 (μM)]; for inhibition at 31.6 µM: read-out: PC3 % INH [31.6 μM]. The procedure: as §1, §2, §3, §4, §5, §6, §7, §8, §9
In test [3] the test system is KB/HeLa (human cervix carcinoma) cells. As to the kind of experiment: XTT cytotoxicity assay, KB/HeLa cells. The test is classed as cell-based. The settings on record: read-out: KB/HELA [IC50 (μM)]. The procedure: as §1, §2, §3, §5, §6, §7, §8, §9
The subject of test [4] is SKOV-3 (human ovary adenocarcinoma) cells. Briefly: XTT cytotoxicity assay, SKOV-3 cells. The settings on record: for SKOV-3 % INH [100 μM]: second set of experiments; for inhibition at 100 µM: Homo sapiens, SK-OV-3, second set of experiments, read-out: SKOV-3 % INH [100 μM]. The test is classed as cell-based. The method, then: On the first day of the experiment cells were harvested from exponential phase cultures by trypsination, counted and plated into 96 well flat-bottom micro titer plates depending on the cell line as listed below: [table] After a 24 h recovery to allow the cells to resume exponential growth, the test compounds were diluted immediately prior to use and transferred in 25 μl volume to the wells. Following 2 days of continuous drug exposure 50 μl of freshly prepared XTT-PMS solution {2% 0.386 mg/ml PMS (N-Methyl Dibenzopyrazine Methylsulphate; Sigma, Cat. No. […] Serva, Cat. No. 38450) in RPMI 1640 medium without phenol red} was added to the wells. To measure the proportion of living cells, the cells were incubated for 3 h with XTT-PMS reagent at 37° C., 5% CO2, humidified atmosphere allowing to form the formazan salt. […] Inhibition curves were generated and IC50 values calculated by using GraphPad Prism.

Test [5] concerns PC3, RKOp21 and SKOV-3 cell lines. As to the kind of experiment: XTT cytotoxicity assay, mean over all three cell lines. Type of test: cell-based, human. Particulars: mean value over all three cell lines. The method, then:
Following 2 days of continuous drug exposure 50 μl of freshly prepared XTT-PMS solution {2% 0.386 mg/ml PMS (N-Methyl Dibenzopyrazine Methylsulphate; Sigma, Cat. No. […] Serva, Cat. No. 38450) in RPMI 1640 medium without phenol red} was added to the wells. To measure the proportion of living cells, the cells were incubated for 3 h with XTT-PMS reagent at 37° C., 5% CO2, humidified atmosphere allowing to form the formazan salt. […] Inhibition curves were generated and IC50 values calculated by using GraphPad Prism. In the following table 7 cytotoxicity results (% inhibition of cell growth) obtained in the second set of experiments for selected compounds of the invention are presented in comparison to examples of the prior art (perifosine, miltefosine). The results presented are individual values for the respective cell line as well as the mean value over all three cell lines tested.

Setting [6] is: Homo sapiens, XTT, 48 h exposure.
Setting [7] is: Homo sapiens, PC-3, XTT, 48 h exposure.
[8] abbreviates: Homo sapiens, HeLa, XTT, 48 h exposure.

In the case of `CCCCCCCCC=CCCCCCCCCOP(=O)(O)OCCN1CCCCC1` [Compound 19], the “RKOp21 % INH [31.6 μM]” value in test [1] is recorded as 53.4%. Besides, the IC50 is above 100 µM in test [1] (XTT, 48 h exposure); above 100 µM in test [2] (XTT, 48 h exposure); above 100 µM in test [3] (XTT, 48 h exposure). Also, the “PC3 % INH [31.6 μM]” value in test [2] came out at 16.2%. Also, the “SKOV-3 % INH [100 μM]” value in test [4] is given as 26.9%. In addition, the “Mean % INH” value in test [5] came out at 32.2%.

Turning to `CCCCCCCCCCOCCOCCOP(=O)([O-])OCC[N+]1(C)CCCCC1` [Compound 20], the “RKOp21 % INH [31.6 μM]” value in test [1] is on record as −12.4%. Moreover, the IC50 in test [1] (XTT, 48 h exposure) is above 100 µM; in test [2] (XTT, 48 h exposure), above 100 µM; in test [3] (XTT, 48 h exposure) it was above 100 µM. For the same compound, in test [2], the “PC3 % INH [31.6 μM]” value worked out at 13.4%. The “SKOV-3 % INH [100 μM]” value in test [4] is listed as −6.1%. For the same compound, the “Mean % INH” value in test [5] is on record as −1.7%.

For `CCCCCCCCC#CCCCCCCCCOP(=O)([O-])OCC[N+](C)(C)C` [Compound 144], the inhibition at 31.6 µM in test [1] (Homo sapiens) turned out to be 48%; in test [2] (Homo sapiens, PC-3) it was 14%. The figures for the IC50 in test [1] (setting [6]), in test [2] (setting [7]) and in test [3] (setting [8]) were 51.1 µM, above 100 µM and above 100 µM, respectively. Besides, the inhibition at 100 µM in test [4] was -3%. Also, the “Mean % INH” value in test [5] is 19.7%.

Take `CCCCCCCC/C=C\CCCCCCCCCCCCOP(=O)([O-])OCC[As+](CC)(CC)CC` [Compound 159]: the IC50 is 21 µM in test [1] (XTT, 48 h exposure); 37.7 µM in test [2] (XTT, 48 h exposure); above 100 µM in test [3] (XTT, 48 h exposure).

On to `CCCCCCCC/C=C\CCCCCCCCCCCCOP(=O)([O-])OCCC1=C(C)[N+](C)=CC1` [Compound 172], for which the IC50 in test [1] (setting [6]) is 65.5 µM; in test [2] (setting [7]) it was 29.8 µM; in test [3] (setting [8]) it was above 100 µM.

Turning to `CCCCCCC1CCC(CCOP(=O)([O-])OCC[N+]2(C)CCCCC2)CC1` (centres unmarked) [Compound 180], the IC50 in test [1] (setting [6]), in test [2] (setting [7]) and in test [3] (setting [8]) was above 100 µM each time.

For the compound `CCCCCCCC/C=C\CCCCCCCCCCCCOP(=O)([O-])OC1CCC[N+](C)(CCc2ccccc2)CC1` (centres unmarked) [Compound 185], the values for the IC50 in test [1] (setting [6]), in test [2] (setting [7]) and in test [3] (setting [8]) were above 100 µM, 30.4 µM and above 100 µM, respectively.

Regarding `CCCCCCCCCCCCCCCCOP(=O)([O-])OCC[n+]1cccc(C(=O)OCC)c1` [Compound 190], the IC50 in test [1] (setting [6]) is above 100 µM; in test [2] (setting [7]), 73.3 µM; in test [3] (setting [8]) it was 100 µM.

Consider `CCCCCCCCCCCCCCCCOP(=O)([O-])OC1CC[N+](CC)(CC)CC1` [Compound 200], for which the IC50 in test [1] (setting [6]) is above 100 µM; in test [2] (setting [7]), 34.5 µM; in test [3] (setting [8]), 66.4 µM.

Consider `CCCCCCCC/C=C\CCCCCCCCCCCCOP(=O)([O-])OC1CC[N+](CC)(CC)CC1` [Compound 203], for which the IC50 in test [1] (setting [6]) is above 100 µM; in test [2] (setting [7]), 63.1 µM; in test [3] (setting [8]) it was above 100 µM.

`CCC(C)CC(C)CC(C)CC(C)COP(=O)([O-])OCC[N+](C)(C)C` (centres unmarked) [Compound 235]: the IC50 in test [1] (setting [6]), in test [2] (setting [7]) and in test [3] (setting [8]) was above 100 µM throughout.

Regarding `CCCCCCCC/C=C\CCCCCCCCOCCOCCOP(=O)([O-])OC1CC[N+](C)(C)CC1` [Compound 256], the IC50 in test [1] (setting [6]) is above 100 µM; in test [2] (setting [7]), 82 µM; in test [3] (setting [8]) it was above 100 µM.

`CCC(C)CC(C)CC(C)CC(C)COP(=O)([O-])OC1CC[N+](C)(C)CC1` (centres unmarked) [Compound 258]: the IC50 in test [1] (setting [6]), in test [2] (setting [7]) and in test [3] (setting [8]) was above 100 µM each time.

For the compound `C#CC[N+]1(C)CCC(OP(=O)([O-])OCCCCCCCCCCCCCCCC)CC1` (centres unmarked) [Compound 262], the results for the IC50 in test [1] (setting [6]), in test [2] (setting [7]) and in test [3] (setting [8]) were above 100 µM, 31.2 µM and 10.1 µM, respectively.

`CCCCCCCC/C=C\CCCCCCCCCCCCOP(=O)([O-])OCC[N+](CC)(CC)CC` [Compound 275]: the IC50 in test [1] (setting [6]) was 44.4 µM; in test [2] (setting [7]) it was 69.2 µM; in test [3] (setting [8]), above 100 µM.

Consider `CCCCCCCC/C=C\CCCCCCCC(=O)OCC(COP(=O)([O-])OCC[As+](C)(C)C)OC(=O)CCCCCCC/C=C\CCCCCCCC` (centres unmarked) [Compound 311], for which the IC50 was above 100 µM in test [1] (Homo sapiens, 48 h); above 100 µM in test [2] (Homo sapiens, PC-3, 48 h); above 100 µM in test [3] (Homo sapiens, HeLa, 48 h).

As to `CCCCCCCCCCCCCCCCOP(=O)([O-])OCCCC[N+](C)(C)C` [Compound 314], in test [1], the “RKOp21 % INH [31.6 μM]” value is reported as 10.6%. In addition, in test [2], the “PC3 % INH [31.6 μM]” value is listed as 51.6%. For the same compound, in test [4], the “SKOV-3 % INH [100 μM]” value is reported as 33.2%. For the same compound, the “Mean % INH” value in test [5] came to 31.8%.

With `CCCCCCCCCCCCCCCCCCOP(=O)([O-])OC1CC[N+](C)(C)CC1` [perifosine, octadecyl-1,1-dimethyl-piperidino-4-yl-phosphate, reference compound], the inhibition at 31.6 µM turned out to be 63% in test [1] (Homo sapiens) and 80.2% in test [2] (Homo sapiens, PC-3). Also, the inhibition at 100 µM in test [4] is 90.7%. In addition, the “Mean % INH” value in test [5] came out at 78.0%.
